Results published in patent publication US20050119224A1, “Use of n-acetyl-d-glucosamine in the manufacture of pharmaceutical useful for adjuvant treatment of perianal disease” (priority 2001, published 2005).

Legend:
Pseudomonas aeruginosa = test: Test of resistance to field planting (Pseudomonas aeruginosa planting model); format: in vivo, Mice of Kunming Species; conditions: three dosages (high, middle, low), infused abdominally each day, feces culture
Description: 1. Animal: Mice of Kunming Species, Provided by the 3rd Military Medical University P.R. China.
Firstly, the animals used for experiment were infused abdominally with a suspension of Pseudomonas aeruginosa so as to make a Pseudomonas aeruginosa planting model, the mice that have Pseudomonas aeruginosa in the feces specimen cultured continuously for three days are deemed as positive. 32 mices which were positive in the experiment for making model were selected and divided into four groups, that is, three experimental groups with different dosages and one control group, eight mice in each group. The experimental groups are infused abdominally with N-acetyl-D glucosamine each day according to a schedule, while the control group is infused with saline solution. Cultivate the excrement every day, observe the saturation of Pseudomonas aeruginosa planting growth.

liver lysosome membrane = test: Test of stabilizing lysosome membrane (rat model of endotoxin shock); format: in vivo, wistar rat; conditions: rat with endotoxin shock, versus saline control
Description: • 1. Animals: wistar rat, provided by the 3rd Military Medical University P.R. China. • 2. Method: setting up a rat model of endotoxin shock, at the same time, for the liver lysosome of rat, carry out a test of stabilizing membranes in vivo and in vitro. The model animals were divided into two groups, in the experimental group, N-acetyl-D-glucosamine was used to carry out the treatment, in the control group, saline solution was used to carry out the same treatment. The condition of liver lysosome mambrane was reflected by the activity of acidic phosphatase (ACP). • 3. Result: the activity of free ACP in the control group and that in the experimental group are obviously different. • 4. […] V. Human on Trial

[1] = Human on trial (clinic test, peri-anal diseases); format: in vivo; conditions: pharmaceutical preparations made from the compound, humans suffering from peri-anal diseases

CC(=O)N[C@@H]1[C@@H](O)[C@H](O)[C@@H](CO)O[C@H]1O [compound of formula (I), N-acetyl-D-glucosamine]
resistance to Pseudomonas aeruginosa planting in intestines (Pseudomonas aeruginosa): able to effectively resist Pseudomonas aeruginosa in intestines
stabilization of liver lysosome membrane (liver lysosome membrane; in vivo and in vitro): able to effectively stabilize liver lysosome membrane
release of acidic phosphatase (ACP) (liver lysosome membrane; liver lysosome): decrease the release of acidic phosphatase
relief of peri-anal symptoms [1]: able to eliminate or relieve quickly the peri-anal uncomfortableness, pain, exudation, pruritus and the like
